Experimental data from patent US7795261B2, “Substituted 1-piperidin-4-yl-4-pyrrolidin-3-yl-piperazine derivatives and their use as neurokinin antagonists” (Janssen Pharmaceutica NV, priority 2002, dated 2010).

Key:
Assay type in all cases: cell-based
NK2 = biological target: T1, NK2 (Homo sapiens, UniProt P21452); experiment: Signal transduction (ST), intracellular Ca++ (FLIPR), NK2; settings: read-out: pIC50 NK2 (converted)
T1 sequence (P21452 1-398): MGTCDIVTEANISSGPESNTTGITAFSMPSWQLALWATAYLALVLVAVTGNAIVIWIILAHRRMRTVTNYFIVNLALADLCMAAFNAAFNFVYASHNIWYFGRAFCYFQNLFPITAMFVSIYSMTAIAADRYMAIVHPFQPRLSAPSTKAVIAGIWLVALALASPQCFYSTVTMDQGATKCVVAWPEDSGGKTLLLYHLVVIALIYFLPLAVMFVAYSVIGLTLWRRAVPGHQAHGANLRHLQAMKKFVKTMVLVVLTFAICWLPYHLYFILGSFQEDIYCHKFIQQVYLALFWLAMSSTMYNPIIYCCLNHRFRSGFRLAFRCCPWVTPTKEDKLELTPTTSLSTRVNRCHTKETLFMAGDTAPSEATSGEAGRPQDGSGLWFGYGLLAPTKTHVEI
Method: [The procedure below names another target; the source lists this target under the same test.] This test evaluates in vitro functional NK1 antagonistic activity. For the measurements of intracellular Ca^++ concentrations the cells were grown on 96-well (black wall/transparent bottom) plates from Costar for 2 days until they reached confluence. The cells were loaded with 2 μM Fluo3 in DMEM containing 0.1% BSA and 2.5 mM probenecid for 1 h at 37° C. They were washed 3× with a Krebs buffer (140 mM NaCl, 1 mM MgCl2×6H2O, 5 mM KCl, 10 mM glucose, 5 mM HEPES; 1.25 mM CaCl2; pH 7.4) containing 2.5 mM probenecid and 0.1% BSA (Ca^++-buffer). The cells were preincubated with a concentration range of antagonists for 20 min at RT and Ca^++-signals after addition of the agonists were measured in a Fluorescence Image Plate Reader (FLIPR from Molecular Devices, Crawley, England). The peak of the Ca^++-transient was considered as the relevant signal and the mean values of corresponding wells were analysed as described below.
The sigmoidal dose response curves were analysed by computerised curve-fitting, using the GraphPad Program. […] For antagonist responses the IC50-value was calculated using non-linear regression.
The last columns indicates—without being limited therefore—for which the compounds might be most suitable. Of course, since for some neurokinin receptors no data was determined, it is obvious that these compounds might be attributed to another suitable use.

NK1 = NK1 (Homo sapiens, UniProt P25103); experiment: Signal transduction (ST), intracellular Ca++ (FLIPR), NK1 antagonistic activity; settings: read-out: pIC50 NK1 (converted)
In short: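 Antagonist IC50 was fitted by non-linear regression of peak intracellular Ca++ signals measured on FLIPR after agonist challenge. Beforehand, Fluo3-loaded confluent cells received antagonists over a concentration range for 20 min at room temperature in Ca++ Krebs buffer, pH 7.4.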

NK3 = biological target: T2, NK3 (Homo sapiens, UniProt P29371); experiment: Signal transduction (ST), intracellular Ca++ (FLIPR), NK3; settings: read-out: pIC50 NK3 (converted)
T2 sequence (P29371 1-465): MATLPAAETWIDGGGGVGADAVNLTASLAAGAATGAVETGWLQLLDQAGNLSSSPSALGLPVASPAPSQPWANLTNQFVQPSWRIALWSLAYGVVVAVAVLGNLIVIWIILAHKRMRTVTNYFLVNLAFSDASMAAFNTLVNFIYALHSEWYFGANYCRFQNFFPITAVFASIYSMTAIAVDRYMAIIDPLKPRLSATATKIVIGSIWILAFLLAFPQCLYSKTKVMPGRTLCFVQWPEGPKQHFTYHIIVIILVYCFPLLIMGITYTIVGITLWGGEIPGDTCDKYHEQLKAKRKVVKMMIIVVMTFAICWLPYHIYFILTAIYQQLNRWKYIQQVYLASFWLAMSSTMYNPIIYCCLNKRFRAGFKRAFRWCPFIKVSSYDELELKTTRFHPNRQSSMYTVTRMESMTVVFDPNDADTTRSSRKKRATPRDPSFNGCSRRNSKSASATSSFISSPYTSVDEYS

Sequence of NK1 (P25103 whole entry): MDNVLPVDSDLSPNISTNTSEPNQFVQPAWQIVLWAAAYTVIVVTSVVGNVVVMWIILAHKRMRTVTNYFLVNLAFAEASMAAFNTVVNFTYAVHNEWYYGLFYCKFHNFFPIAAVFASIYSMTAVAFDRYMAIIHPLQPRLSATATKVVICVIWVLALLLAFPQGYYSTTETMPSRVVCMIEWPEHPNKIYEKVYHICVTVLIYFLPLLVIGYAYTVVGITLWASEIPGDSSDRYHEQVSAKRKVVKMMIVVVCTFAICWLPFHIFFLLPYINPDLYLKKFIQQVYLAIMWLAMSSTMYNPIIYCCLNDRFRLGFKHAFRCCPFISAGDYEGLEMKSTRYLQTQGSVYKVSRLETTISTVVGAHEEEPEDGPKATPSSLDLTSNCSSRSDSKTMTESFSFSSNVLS

| IC50 (NK2) [nM] | IC50 (NK1) [nM] | IC50 (NK3) [nM] | Structure (SMILES) |
| --- | --- | --- | --- |
| 3980 | 31.6 | 1000 | O=C(c1cnccn1)N1CCC(N2CCN([C@H]3CCN(C(=O)c4cc(C(F)(F)F)cc(C(F)(F)F)c4)[C@H](Cc4ccccc4)C3)CC2)C1 (stereo partly drawn) [Compound 30] |
| 3160 | 20 | 316 | O=C(c1ccoc1)N1CCC(N2CCN([C@H]3CCN(C(=O)c4cc(C(F)(F)F)cc(C(F)(F)F)c4)[C@H](Cc4ccccc4)C3)CC2)C1 (stereo partly drawn) [Compound 34] |
| 3980 | 25.1 | 200 | O=C(c1ccco1)N1CCC(N2CCN([C@H]3CCN(C(=O)c4cc(C(F)(F)F)cc(C(F)(F)F)c4)[C@H](Cc4ccccc4)C3)CC2)C1 (stereo partly drawn) [Compound 35] |
| 1580 | 15.8 | 200 | O=C(c1ccsc1)N1CCC(N2CCN([C@H]3CCN(C(=O)c4cc(C(F)(F)F)cc(C(F)(F)F)c4)[C@H](Cc4ccccc4)C3)CC2)C1 (stereo partly drawn) [Compound 41] |
| 7940 | 25.1 | 631 | Cc1ccc(C(=O)N2CCC(N3CCN([C@H]4CCN(C(=O)c5cc(C(F)(F)F)cc(C(F)(F)F)c5)[C@H](Cc5ccccc5)C4)CC3)C2)s1 (stereo partly drawn) [Compound 43] |
| 6310 | 50.1 | 631 | O=C(c1cc(Cl)sc1Cl)N1CCC(N2CCN([C@H]3CCN(C(=O)c4cc(C(F)(F)F)cc(C(F)(F)F)c4)[C@H](Cc4ccccc4)C3)CC2)C1 (stereo partly drawn) [Compound 44] |
| 3980 | 31.6 | 1260 | Cc1cc(C(=O)N2CCC(N3CCN([C@H]4CCN(C(=O)c5cc(C(F)(F)F)cc(C(F)(F)F)c5)[C@H](Cc5ccccc5)C4)CC3)C2)no1 (stereo partly drawn) [Compound 46] |
| 3160 | 25.1 | 251 | Cc1onc(-c2c(Cl)cccc2Cl)c1C(=O)N1CCC(N2CCN([C@H]3CCN(C(=O)c4cc(C(F)(F)F)cc(C(F)(F)F)c4)[C@H](Cc4ccccc4)C3)CC2)C1 (stereo partly drawn) [Compound 49] |
| 3160 | 39.8 | 126 | O=C(c1c[nH]c2ccccc12)N1CCC(N2CCN([C@H]3CCN(C(=O)c4cc(C(F)(F)F)cc(C(F)(F)F)c4)[C@H](Cc4ccccc4)C3)CC2)C1 (stereo partly drawn) [Compound 56] |
| 2510 | 50.1 | 158 | O=C(C(=O)N1CCC(N2CCN(C3CCN(C(=O)c4cc(C(F)(F)F)cc(C(F)(F)F)c4)C(Cc4ccccc4)C3)CC2)C1)c1ccco1 (stereo not drawn) [Compound 64] |
| 5010 | 25.1 | 398 | O=C(Cc1ccco1)N1CCC(N2CCN([C@H]3CCN(C(=O)c4cc(C(F)(F)F)cc(C(F)(F)F)c4)[C@H](Cc4ccccc4)C3)CC2)C1 (stereo partly drawn) [Compound 66] |
| 3980 | 25.1 | 1000 | O=C(Cc1cccs1)N1CCC(N2CCN([C@H]3CCN(C(=O)c4cc(C(F)(F)F)cc(C(F)(F)F)c4)[C@H](Cc4ccccc4)C3)CC2)C1 (stereo partly drawn) [Compound 67] |
| 631 | 12.6 | 501 | CC(C(=O)N1CCC(N2CCN([C@H]3CCN(C(=O)c4cc(C(F)(F)F)cc(C(F)(F)F)c4)[C@H](Cc4ccccc4)C3)CC2)C1)c1ccccc1 (stereo partly drawn) [Compound 69] |
| 63.1 | 50.1 | 794 | O=C(C1CC1)N1CCC(N2CCN([C@H]3CCN(C(=O)c4cc(C(F)(F)F)cc(C(F)(F)F)c4)[C@H](Cc4ccccc4)C3)CC2)C1 (stereo partly drawn) [Compound 72] |
| 1000 | 25.1 | 398 | O=C(c1cc(C(F)(F)F)cc(C(F)(F)F)c1)N1CC[C@H](N2CCN(C3CCN(S(=O)(=O)c4ccccc4)C3)CC2)C[C@H]1Cc1ccccc1 (stereo partly drawn) [Compound 75] |
| 1260 | 20 | 200 | O=C(c1cc(C(F)(F)F)cc(C(F)(F)F)c1)N1CC[C@H](N2CCN(C3CCN(S(=O)(=O)c4cccs4)C3)CC2)C[C@H]1Cc1ccccc1 (stereo partly drawn) [Compound 76] |

| IC50 (NK2) [nM] | IC50 (NK1) [nM] | IC50 (NK3) [nM] | Structure (SMILES) |
| --- | --- | --- | --- |
| 2510 | 20 | 501 | COC(=O)c1sccc1S(=O)(=O)N1CCC(N2CCN([C@H]3CCN(C(=O)c4cc(C(F)(F)F)cc(C(F)(F)F)c4)[C@H](Cc4ccccc4)C3)CC2)C1 (stereo partly drawn) [Compound 77] |
| 398 | 31.6 | 251 | Cc1nc(S(=O)(=O)N2CCC(N3CCN([C@H]4CCN(C(=O)c5cc(C(F)(F)F)cc(C(F)(F)F)c5)[C@H](Cc5ccccc5)C4)CC3)C2)cn1C (stereo partly drawn) [Compound 78] |
| 1000 | 15.8 | 501 | Cc1noc(C)c1S(=O)(=O)N1CCC(N2CCN(C3CCN(C(=O)c4cc(C(F)(F)F)cc(C(F)(F)F)c4)C(Cc4ccccc4)C3)CC2)C1 (stereo not drawn) [Compound 79] |
| 5010 | 15.8 | 398 | Cn1cccc1C(=O)CN1CCC(N2CCN([C@H]3CCN(C(=O)c4cc(C(F)(F)F)cc(C(F)(F)F)c4)[C@H](Cc4ccccc4)C3)CC2)C1 (stereo partly drawn) [Compound 103] |
| 3160 | 100 | 631 | O=C(C(NCc1ccccc1)c1ccccc1)N1CCC(N2CCN([C@H]3CCN(C(=O)c4cc(C(F)(F)F)cc(C(F)(F)F)c4)[C@H](Cc4ccccc4)C3)CC2)C1 (stereo partly drawn) [Compound 107] |
| 7940 | 20 | 316 | CC(C)(C)OC(=O)N1CCC[C@H]1C(=O)N1CCC(N2CCN([C@H]3CCN(C(=O)c4cc(C(F)(F)F)cc(C(F)(F)F)c4)[C@H](Cc4ccccc4)C3)CC2)C1 (stereo partly drawn) [Compound 115] |
| 2000 | 7.94 | 631 | CC(C)(C)C(=O)N1CCC(N2CCN(C3CCN(C(=O)c4cc(C(F)(F)F)cc(C(F)(F)F)c4)C(Cc4ccccc4)C3)CC2)C1 (stereo not drawn) [Compound 167] |
| 2510 | 12.6 | 251 | O=C(c1c(Cl)cccc1Cl)N1CCC(N2CCN([C@H]3CCN(C(=O)c4cc(C(F)(F)F)cc(C(F)(F)F)c4)[C@H](Cc4ccccc4)C3)CC2)C1 (stereo partly drawn) [Compound 169] |
| 794 | 6.31 | 251 | O=C(c1cnccn1)N1CCC(N2CCN(C3CCN(C(=O)c4cc(C(F)(F)F)cc(C(F)(F)F)c4)C(Cc4ccc(Cl)c(Cl)c4)C3)CC2)C1 (stereo not drawn) [Compound 171] |
| 794 | 7.94 | 398 | O=C(C1CCOC1)N1CCC(N2CCN(C3CCN(C(=O)c4cc(C(F)(F)F)cc(C(F)(F)F)c4)C(Cc4ccc(Cl)c(Cl)c4)C3)CC2)C1 (stereo not drawn) [Compound 172] |
| 794 | 20 | 251 | O=C(c1ccoc1)N1CCC(N2CCN(C3CCN(C(=O)c4cc(C(F)(F)F)cc(C(F)(F)F)c4)C(Cc4ccc(Cl)c(Cl)c4)C3)CC2)C1 (stereo not drawn) [Compound 173] |
| 2000 | 20 | 1000 | O=C(c1ccccc1F)N1CCC(N2CCN(C3CCN(C(=O)c4cc(C(F)(F)F)cc(C(F)(F)F)c4)C(Cc4ccc(Cl)c(Cl)c4)C3)CC2)C1 (stereo not drawn) [Compound 174] |
| 1000 | 25.1 | 398 | O=C(c1cccs1)N1CCC(N2CCN(C3CCN(C(=O)c4cc(C(F)(F)F)cc(C(F)(F)F)c4)C(Cc4ccc(Cl)c(Cl)c4)C3)CC2)C1 (stereo not drawn) [Compound 175] |
| 2510 | 20 | 1000 | CC(C(=O)N1CCC(N2CCN(C3CCN(C(=O)c4cc(C(F)(F)F)cc(C(F)(F)F)c4)C(Cc4ccc(Cl)c(Cl)c4)C3)CC2)C1)c1ccccc1 (stereo not drawn) [Compound 176] |
| 2000 | 10 | 251 | O=C(C1CCCCC1)N1CCC(N2CCN([C@H]3CCN(C(=O)c4cc(C(F)(F)F)cc(C(F)(F)F)c4)[C@H](Cc4ccccc4)C3)CC2)C1 (stereo partly drawn) [Compound 178] |
